Where “and” joins values, the source holds several entries; their conditions need not be identical. Identical values can stand only once. Calls of active or inactive are those of the source.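 How the source made its calls: active means compounds giving half or more protection of infected cells from virus-caused growth loss, again on retest; inactive means the rest.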
Test system: CEM cells HIV-1 protection, formazan growth assay
Assay: NCI AIDS Antiviral Assay
Details: for IC50: measured here: growth of uninfected CEM cells
In short: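 Protection of CEM cells against HIV-1 was scored from cell growth (soluble formazan) across five concentrations, with parallel uninfected cells. Lack of protection may reflect toxicity.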

Compound	EC50	IC50	outcome
O=S(=O)(O)OCC1OC2OC3C(COS(=O)(=O)O)OC(OC4C(COS(=O)(=O)O)OC(OC5C(COS(=O)(=O)O)OC(OC6C(COS(=O)(=O)O)OC(OC7C(COS(=O)(=O)O)OC(OC8C(COS(=O)(=O)O)OC(OC1C(OS(=O)(=O)O)C2OS(=O)(=O)O)C(OS(=O)(=O)O)C8OS(=O)(=O)O)C(OS(=O)(=O)O)C7OS(=O)(=O)O)C(OS(=O)(=O)O)C6OS(=O)(=O)O)C(OS(=O)(=O)O)C5OS(=O)(=O)O)C(OS(=O)(=O)O)C4OS(=O)(=O)O)C(OS(=O)(=O)O)C3OS(=O)(=O)O (configuration not stated)	21.4 µM and > 50.1 µM	75.9 µM and > 50.1 µM	–
O=S1ON=C(C2CCC(C3=NOS(=O)O3)C2)O1 (configuration not stated)	> 200 µM	> 200 µM	–
OCC1OC(n2cnc3cccnc32)CC1O (configuration not stated)	> 200 µM	> 200 µM	–
CC(C)N1C(=O)NC2C1NC(=O)N2C(C)C (configuration not stated) (tested in a mixture with another compound)	> 200 µM	> 200 µM	–
Cc1nc2c(ccc3c(C)c(C)c(C)nc32)c(C)c1C	> 20 µM	0.977 µM	–
CCCCCCC=C(c1cc(Cl)c(OC)c(C(=O)OC)c1)c1cc(Cl)c(OC)c(C(=O)OC)c1	> 5.37 µM	> 5.37 µM	–
O=C1OC(OC/C(Br)=C(/Br)COC2OC(=O)C(Cl)=C2Cl)C(Cl)=C1Cl (configuration not stated)	> 200 µM	3.47 µM	–
CCOC(=O)c1c(Br)c(-c2ccc(Br)cc2)c(Br)n1C	> 100 µM	43.7 µM	–
CC(C)[C@@H]1CC[C@]2(COC(=O)CC(C)(C)CC(=O)O)CC[C@]3(C)[C@H](CC[C@@H]4[C@@]5(C)CC[C@H](OC(=O)CC(C)(C)CC(=O)O)C(C)(C)[C@@H]5CC[C@]43C)[C@@H]12	> 200 µM	9.77 µM	–
Cc1occc1C(=S)Nc1ccc(Cl)c(C(=O)OCC(F)(F)F)c1	0.0195 µM	19.1 µM	–
CN1C(=O)c2ccccc2Sc2ccccc21	6.46 µM	115 µM	–
O=c1c(Nc2ccccc2)cn(CCOc2ccc(Cl)cc2)c(=O)n1CCOc1ccc(Cl)cc1	> 200 µM	145 µM	–
O=C(N/C(=C\c1ccc(Br)cc1)c1nc2ccccc2s1)c1ccccc1	> 22.9 µM	> 22.9 µM	–
COC(=O)C1CCC(=O)N1C(c1ccc(OC)cc1)c1cc(OC)c(OC)c(OC)c1 (configuration not stated)	> 2 µM	0.1 µM	–
O=S(OC12CC3CC(CC(C3)C1)C2)c1cc(Cl)cc(Cl)c1OCc1ccccc1 (configuration not stated)	–	–	inactive
CCC[CH2][Sn]1([CH2]CCC)[O]C(=O)c2cc(I)cc(I)c2[O]1	–	–	inactive
O=C(Nc1ccc(Cl)c(Cl)c1)C(=O)C(C(=O)c1ccccc1F)C1OC(=O)c2ccccc21 (configuration not stated)	> 195 µM	14.1 µM	–
CN(N=O)C(=O)ON1C(=O)CCC1=O	> 1230 µM	107 µM	–
COC(=O)[C@@H]1C[C@@H]2c3ccccc3N(S(=O)(=O)c3ccccc3)[C@@H]2N1C(=O)OC	> 200 µM	> 200 µM	–
Cc1cccc(-c2nc3ccc([N+](=O)[O-])cc3c(=O)o2)c1	> 200 µM	30.9 µM	–

Compound	EC50	IC50	outcome
CNC(=O)OCn1cnc(Cl)c1Cl	> 200 µM	> 200 µM	–
COc1ccc(-n2c(-c3ccccc3)cc(-c3cccs3)c2-c2cccs2)cc1	> 200 µM	> 200 µM	–
CCOC(=O)c1cc(-c2ccc(OC)c(OC)c2)c[nH]1	> 200 µM	50.1 µM	–
CC(C)(C)C(=O)C(Cc1ccccc1)C(=O)C(C)(C)C	–	–	inactive
Cc1ccc(CN2CC(=O)N3Cc4ccccc4CN3C(=O)C2)cc1	–	–	inactive
N.N.NCCCCCN.O=C([O-])CC(=O)[O-].O=C([O-])CC(=O)[O-].[Pt+4].[Pt+4]	> 2140 µM	6.76 µM	–
COc1cc(OC)cc(Oc2nc3c(N)cc(C(F)(F)F)cc3nc2-c2ccccc2)c1	> 200 µM	> 200 µM	–
O=C(O)c1ccccc1/C=N\N(CCO)C1=NCCN1	> 200 µM	> 200 µM	–
COCCNC1CCC(=O)c2[nH]c3ccccc3c21 (configuration not stated)	> 200 µM	> 200 µM	–
O=C(Nc1sccc1S(=O)(=O)c1ccccc1)c1ccccc1	> 20 µM	11.7 µM	–
CCSC1=N/C(=C\c2ccccc2O)C(Nc2ccc(C)cc2)=N1	> 100 µM	> 100 µM	–
CCOC(=O)CC(=O)C(=O)NNC1=NCCCN1	> 200 µM	> 200 µM	–
COc1c(Cl)cc(C(=CCCCC(=O)O)c2cc(Cl)c(OC)c(C(=O)O)c2)cc1C(=O)O	> 200 µM	> 200 µM	–
CC(=O)OC12c3ccccc3C1CCCC21OCCCO1 (configuration not stated)	> 200 µM	> 200 µM	–
O=C(/C=C\c1ccccc1O)c1ccc(O)cc1O	> 72.4 µM	7.24 µM	–
O=C1C=C(Nc2ccc(S(=O)(=O)Nc3nccs3)cc2)c2ccccc2C1=O	> 316 µM	38.9 µM	–
N#Cc1c(N)[nH]c(=S)c(C#N)c1-c1ccccc1	> 200 µM	135 µM	–
C[C@H]1C(=O)c2c(cc(O)c(C3OC(CO)C(O)C(O)C3O)c2O)OC1c1ccc(O)c(O)c1 (some centres not stated)	–	–	inactive
CN/N=C(/CC(=O)c1sc(-n2nc(-c3ccccc3)cc2-c2ccccc2)nc1C)C(=O)Nc1ccc(Cl)c(Cl)c1	> 112 µM	> 112 µM	–
C1CCCN(N2CCOCC2)CC1	> 200 µM	> 200 µM	–

Compound	EC50	IC50	outcome
O=C(O)c1ccc2c(O)c(O)ccc2c1	> 77.6 µM	6.03 µM	–
N#CC12CCCC(=O)N1c1ccccc1S2 (configuration not stated)	> 195 µM	105 µM	–
O=c1[nH]c2ccccc2c(=O)c2cc3ccccc3cc12	> 200 µM	> 200 µM	–
CC(CO)(CO)N1C(=O)C2C3c4ccccc4C(c4ccccc43)C2C1=O (configuration not stated)	> 200 µM	> 200 µM	–
CC(=O)N/C(=C\c1ccc(Cc2nc3c([nH]2)C(=O)c2ccccc2C3=O)cc1)c1nc2c([nH]1)C(=O)c1ccccc1C2=O	> 12.6 µM	> 12.6 µM	–
O=c1ssc(Cl)c1Cl	> 200 µM	33.9 µM	–
C[CH2][Sn]([Cl])([CH2]C)[CH2]C	–	–	inactive
CCC1CCc2c(OC)ccc(OCC(=O)O)c2C1=O (configuration not stated)	–	–	inactive
COc1ccc(-c2csc(=Nc3ccccc3)n2CC(O)c2ccc([N+](=O)[O-])cc2)cc1 (configuration not stated)	> 200 µM	38 µM	–
C=CCP(=O)(CC=C)C(Cl)Cl	> 200 µM	> 200 µM	–
O=S(=O)(NCCSSCCNS(=O)(=O)c1cccc2cccnc12)c1cccc2cccnc12	> 200 µM	10.7 µM	–
N/C(=N/N=C\c1nccc2ccccc12)NO	–	–	inactive
CCOC(=O)c1cn2c([nH]c3ccccc32)c(C#N)c1=O	> 47.9 µM	> 47.9 µM	–
O=C1NN(c2ccccc2)C(=O)C2C3c4ccccc4C(c4ccccc43)C12 (configuration not stated)	> 200 µM	> 200 µM	–
CS(=O)(=O)OCCN1CCN(C(=O)c2cccc3c(Nc4ccc(S(N)(=O)=O)cc4)c4ccccc4nc23)CC1	> 51.3 µM	> 51.3 µM	–
CCN(CC)CCNc1ccc(CO)c2oc3cc(Cl)ccc3c(=O)c12	> 25.1 µM	4.57 µM	–
COc1ccc(C[C@H](N)C(=O)N2C[C@@H](CO)C[C@@H](n3cnc4c(N(C)C)ncnc43)C2)cc1	> 275 µM	> 275 µM	–
CCCCCOC(=S)S	> 200 µM	> 200 µM	–
COc1ccc(C2SCC(=O)N2NC(=O)c2ccc(NC(C)=O)cc2)c(OC)c1 (configuration not stated)	> 63.1 µM	> 63.1 µM	–
O=S(=O)(N=[Se](=O)(c1ccccc1)c1ccccc1)c1ccccc1	> 200 µM	115 µM	–
